In assay [1] the test system is PPARG (murine PPARg2 or full-length human PPARG, 3xPPRE-luciferase reporter). As to the kind of experiment: Cell-based PPRE-luciferase transactivation assay in COS-1 cells. The conditions noted are these: for EC50: PPRE-luciferase, COS-1 cells, NA = not active, read-out: EC50 (nM) PPRE. As for the experimental part: Cell-Based Transactivation Assay:
PPRE is a DNA that contains a binding site for PPARG; thus PPRE is a PPAR response element, used herein as a promoter reporter. The binding site is a DR1 response element with the sequence AGGTCA repeated 3 times in tandem and then fused to a construct for luciferase.
Thus, PPRE is the basis of the cell based transactivation assay described below. The plasmid DNA is co-transfected along with a plasmid for PPARG into COS-1 cells. After an overnight incubation, cells are treated with DMSO or compounds.
Confluent COS-1 cells were transfected with 4.5 μg murine PPARg2-pSV Sport or full-length human PPAR9-pSport6, 4.5 μg 3×PPRE-luciferase reporter and 27 μL X-treme Gene 9 transfection reagent in serum-free opti-mem media (Gibco), followed by overnight incubation at 37° C., 5% CO2. Transfected cells were plated in white Perkin Elmer 384-well plates and incubated 4 hours. […] After 18 hour incubation, treated cells were developed with Brite Lite Plus (Perkin Elmer) and read in 384-well Luminescence Perkin Elmer EnVision Multilabel plate reader. Graphs were plotted in triplicate in GraphPad Prism Software as fold change of treated cells over DMSO control cells.

For assay [2], the target named is GST-PPARG-LBD (Homo sapiens (Human), UniProt P37231). Put plainly: Lanthascreen PPARG competitive binding assay (Invitrogen, TR-FRET). The conditions noted are these: Lanthascreen competitive binding; NA = not active; inc = incomplete curve; read-out: IC50 (nM) Lantha. The method in brief: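 Values are fold change in 520 nm/490 nm FRET ratio relative to a 2% DMSO no-ligand control, excitation 340 nm. Compound dilutions starting at 10 μM competed against 5 nM Fluormone Pan-PPAR Green for GST-PPARG-LBD bound by 5 nM Tb anti-GST antibody. Incubation 2 h in the dark in assay buffer C, triplicate wells.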
(Time-resolved FRET reads energy transfer from a long-lived donor to a nearby acceptor.)

Like-named read-outs stand apart in the source and are kept apart here.

GST-PPARG-LBD, sequence (P37231 238-503): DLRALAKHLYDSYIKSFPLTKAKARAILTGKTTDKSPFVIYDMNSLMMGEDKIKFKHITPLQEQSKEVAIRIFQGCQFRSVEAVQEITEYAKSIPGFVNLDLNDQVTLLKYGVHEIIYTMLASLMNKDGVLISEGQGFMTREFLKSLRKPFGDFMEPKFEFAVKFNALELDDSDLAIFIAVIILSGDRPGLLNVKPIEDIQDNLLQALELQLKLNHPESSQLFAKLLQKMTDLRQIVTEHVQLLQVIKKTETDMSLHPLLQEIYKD

For orientation: EC50 means the concentration needed to bring the measured effect to its halfway point. As usually defined, the IC50 is the concentration that inhibits the measured activity by half. As for `Cc1c(C)n(Cc2ccc(-c3ccccc3C#N)cc2)c2ccc(C(=O)N[C@@H](C)c3ccc(Br)cc3)cc12` [Example 35, (S)—N-(1-(4-Bromophenyl)ethyl)-1-((2′-cyano-[1,1′-biphenyl]-4-yl)methyl)-2,3-dimethyl-1H-indole-5-carboxamide], in assay [1], the half-maximal effective concentration (EC50) worked out at 380 nM. The “PPRE transactivation (% in parentheses)” value in assay [1] (rosiglitazone = 100%) was “(9%)”. In assay [2], the IC50 turned out to be 40 nM.

With `CCC(NC(=O)c1ccc2c(c1)c(C)c(C)n2Cc1ccc(-c2ccccc2-c2nnn[nH]2)cc1)c1ccccc1` (stereo not shown) [Example 36, 1-((2′-(1H-Tetrazol-5-yl)-[1,1′-biphenyl]-4-yl)methyl)-2,3-dimethyl-N-(1-phenylpropyl)-1H-indole-5-carboxamide], the concentration for a half-maximal effect (EC50) in assay [1] came out at 2 nM. Moreover, the “PPRE transactivation (% in parentheses)” value in assay [1] (rosiglitazone = 100%) is given as “(23%)”. Moreover, in assay [2], the IC50 was 6 nM.

Turning to `Cc1c(C)n(Cc2ccc(-c3ccccc3-c3nnn[nH]3)cc2)c2ccc(C(=O)N[C@@H](C)c3ccc(Br)cc3)cc12` [Example 37, (S)-1-((2′-(1H-tetrazol-5-yl)-[1,1′-biphenyl]-4-yl)methyl)-N-(1-(4-bromophenyl)ethyl)-2,3-dimethyl-1H-indole-5-carboxamide], in assay [1], the half-maximal effective concentration (EC50) worked out at 1000 nM. Moreover, in assay [1] (rosiglitazone = 100%), the “PPRE transactivation (% in parentheses)” value was “(19%)”. Moreover, the IC50 in assay [2] is > 1000 nM.

On to `C[C@H](NC(=O)c1ccc2c(ccn2Cc2ccc(-c3ccc(O)cc3)cc2)c1)c1ccc([N+](=O)[O-])cc1` [Example 47, (S)-1-((4′-Hydroxy-[1,1′-biphenyl]-4-yl)methyl)-N-(1-(4-nitrophenyl)ethyl)-1H-indole-5-carboxamide], for which, in assay [1] (rosiglitazone = 100%), the “PPRE transactivation (% in parentheses)” value is “(0%)”. Besides, the IC50 in assay [2] amounted to 300 nM.

With `CCC(NC(=O)c1ccc2c(ccn2Cc2cccc(-c3ccccc3C(=O)O)c2)c1)c1ccccc1` (stereo not shown) [Example 65, 3′-((5-((1-phenylpropyl)carbamoyl)-1H-indol-1-yl)methyl)-[1,1′-biphenyl]-2-carboxylic acid], in assay [1], the concentration giving a half-maximal response (EC50) was 116 nM. Besides, the “PPRE transactivation (% in parentheses)” value in assay [1] (rosiglitazone = 100%) is listed as “(18%)”. For the same molecule, the half-maximal inhibitory concentration (IC50) in assay [2] came to 6 nM.

With `CCC(NC(=O)c1ccc2c(ccn2Cc2cccc(-c3ccc(C(=O)O)cc3)c2)c1)c1ccccc1` (stereo not shown) [Example 67, 3′-((5-((1-Phenylpropyl)carbamoyl)-1H-indol-1-yl)methyl)-[1,1′-biphenyl]-4-carboxylic acid], the EC50 in assay [1] stood at 2 nM. Further, in assay [1] (rosiglitazone = 100%), the “PPRE transactivation (% in parentheses)” value was “(8%)”. In addition, the IC50 in assay [2] amounted to 2 nM.

In the case of `CCC(NC(=O)c1ccc2c(ccn2Cc2ccccc2-c2cccc(C(=O)O)c2)c1)c1ccccc1` (stereo not shown) [Example 69, 2′-((5-((1-Phenylpropyl)carbamoyl)-1H-indol-1-yl)methyl)-[1,1′-biphenyl]-3-carboxylic acid], the “PPRE transactivation (% in parentheses)” value in assay [1] (rosiglitazone = 100%) is listed as “(0%)”. Further, the IC50 in assay [2] was determined as 4 nM.

Take `CCC(NC(=O)c1ccc2c(ccn2Cc2ccccc2-c2ccc(C(=O)O)cc2)c1)c1ccccc1` (stereo not shown) [Example 70, 2′-((5-((1-Phenylpropyl)carbamoyl)-1H-indol-1-yl)methyl)-[1,1′-biphenyl]-4-carboxylic acid]: the “PPRE transactivation (% in parentheses)” value in assay [1] is reported as “(0%)”. Besides, the IC50 in assay [2] came out at 10 nM.

As for `Cc1c(C)n(Cc2ccc(-c3ccccc3C(=O)O)cc2)c2ccc(C(=O)NC[C@H](C)c3ccccc3)cc12` [Example 74, (R)-4′-((2,3-dimethyl-5-(2-phenylpropylcarbamoyl)-1H-indol-1-yl)methyl)biphenyl-2-carboxylic acid], the EC50 in assay [1] came out at 300 nM. In addition, the “PPRE transactivation (% in parentheses)” value in assay [1] (rosiglitazone = 100%) is “(26%)”. The concentration for half-maximal inhibition (IC50) in assay [2] worked out at 76 nM.

As for `Cc1c(C)n(Cc2ccc(-c3ccccc3C(=O)O)cc2)c2ccc(C(=O)NCc3ccc(F)cc3)cc12` [Example 76, 4′-((5-(4-fluorobenzylcarbamoyl)-2,3-dimethyl-1H-indol-1-yl)methyl)biphenyl-2-carboxylic acid], in assay [1], the EC50 worked out at 23 nM. The “PPRE transactivation (% in parentheses)” value in assay [1] (rosiglitazone = 100%) was “(15%)”. Also, the IC50 in assay [2] stood at 5 nM.

With `Cc1c(C)n(Cc2ccc(-c3ccccc3C(=O)O)cc2)c2ccc(C(=O)NCc3ccc(F)c(F)c3)cc12` [Example 77, 4′-((5-(3,4-difluorobenzylcarbamoyl)-2,3-dimethyl-1H-indol-1-yl)methyl)biphenyl-2-carboxylic acid], the concentration giving a half-maximal response (EC50) in assay [1] amounted to 95 nM. In assay [1] (rosiglitazone = 100%), the “PPRE transactivation (% in parentheses)” value is reported as “(20%)”.

As to `Cc1c(C)n(Cc2ccc(-c3ccccc3C(=O)O)cc2)c2ccc(C(=O)NCc3ccc4c(c3)OCO4)cc12` [Example 78, 4′-((5-(benzo[d][1,3]dioxol-5-ylmethylcarbamoyl)-2,3-dimethyl-1H-indol-1-yl)methyl)biphenyl-2-carboxylic acid], the concentration for a half-maximal effect (EC50) in assay [1] is 1000 nM. For the same molecule, the “PPRE transactivation (% in parentheses)” value in assay [1] (rosiglitazone = 100%) was “(30%)”. The concentration for half-maximal inhibition (IC50) in assay [2] worked out at 33 nM.

In the case of `Cc1c(C)n(Cc2ccc(-c3ccccc3C(=O)O)cc2)c2ccc(C(=O)N[C@@H](CO)c3ccccc3)cc12` [Example 79, (R)-4′-((5-(2-hydroxy-1-phenylethylcarbamoyl)-2,3-dimethyl-1H-indol-1-yl)methyl)biphenyl-2-carboxylic acid], in assay [1], the EC50 came out at 297 nM. Also, the “PPRE transactivation (% in parentheses)” value in assay [1] (rosiglitazone = 100%) is “(25%)”. For the same molecule, the IC50 in assay [2] turned out to be 37 nM.

As for `Cc1c(C)n(Cc2ccc(-c3ccccc3C(=O)O)cc2)c2ccc(C(=O)NCc3cccc(N)c3)cc12` [Example 80, 4′-((5-(3-aminobenzylcarbamoyl)-2,3-dimethyl-1H-indol-1-yl)methyl)biphenyl-2-carboxylic acid], the EC50 in assay [1] came out at 2700 nM. Besides, the “PPRE transactivation (% in parentheses)” value in assay [1] (rosiglitazone = 100%) was “(20%)”. In addition, the IC50 in assay [2] was 13 nM.

In the case of `Cc1ccc(CNC(=O)c2ccc3c(c2)c(C)c(C)n3Cc2ccc(-c3ccccc3C(=O)O)cc2)o1` [Example 84, 4′-((2,3-dimethyl-5-((5-methylfuran-2-yl)methylcarbamoyl)-1H-indol-1-yl)methyl)biphenyl-2-carboxylic acid], the EC50 in assay [1] was 40 nM. For the same molecule, the “PPRE transactivation (% in parentheses)” value in assay [1] (rosiglitazone = 100%) is given as “(17%)”. Besides, the IC50 in assay [2] worked out at 12 nM.

In the case of `Cc1c(C)n(Cc2ccc(-c3ccccc3C(=O)O)cc2)c2ccc(C(=O)NCCN3CCOCC3)cc12` [Example 85, 4′-((2,3-dimethyl-5-(2-morpholinoethylcarbamoyl)-1H-indol-1-yl)methyl)biphenyl-2-carboxylic acid], the “PPRE transactivation (% in parentheses)” value in assay [1] (rosiglitazone = 100%) is recorded as “(0%)”. In addition, the concentration for half-maximal inhibition (IC50) in assay [2] was > 1000 nM.

`Cc1c(C)n(Cc2ccc(-c3ccccc3C(=O)O)cc2)c2ccc(C(=O)NC3COc4ccccc4C3)cc12` (stereo not shown) [Example 86, 4′-((5-(chroman-3-ylcarbamoyl)-2,3-dimethyl-1H-indol-1-yl)methyl)biphenyl-2-carboxylic acid]: the “PPRE transactivation (% in parentheses)” value in assay [1] (rosiglitazone = 100%) is “(0%)”. In addition, the 50% inhibitory concentration (IC50) in assay [2] turned out to be 10 nM.

For `Cc1c(C)n(Cc2ccc(-c3ccccc3C(=O)O)cc2)c2ccc(C(=O)NCC3COc4ccccc4C3)cc12` (stereo not shown) [Example 87, 4′-((5-(chroman-3-ylmethylcarbamoyl)-2,3-dimethyl-1H-indol-1-yl)methyl)biphenyl-2-carboxylic acid], the EC50 in assay [1] worked out at 200 nM. Further, the “PPRE transactivation (% in parentheses)” value in assay [1] (rosiglitazone = 100%) was “(18%)”. Further, the IC50 in assay [2] worked out at 17 nM.

For the molecule `Cc1c(C)n(Cc2ccc(-c3ccccc3C(=O)O)cc2)c2ccc(C(=O)NCC3COc4ccccc4O3)cc12` (stereo not shown) [Example 88, 4′-((5-((2,3-dihydrobenzo[b][1,4]dioxin-2-yl)methylcarbamoyl)-2,3-dimethyl-1H-indol-1-yl)methyl)biphenyl-2-carboxylic acid], the EC50 in assay [1] was found to be 170 nM. In addition, the “PPRE transactivation (% in parentheses)” value in assay [1] (rosiglitazone = 100%) was “(17%)”. For the same molecule, the concentration for half-maximal inhibition (IC50) in assay [2] was 11 nM.

In the case of `Cc1c(C)n(Cc2ccc(-c3ccccc3C(=O)O)cc2)c2ccc(C(=O)NC3CCCC3)cc12` [Example 90, 4′-((5-(cyclopentylcarbamoyl)-2,3-dimethyl-1H-indol-1-yl)methyl)biphenyl-2-carboxylic acid], the 50% effective concentration (EC50) in assay [1] is > 1000 nM. In assay [1] (rosiglitazone = 100%), the “PPRE transactivation (% in parentheses)” value is recorded as “(18%)”. The half-maximal inhibitory concentration (IC50) in assay [2] stood at 25 nM.

For `COCCNC(=O)c1ccc2c(c1)c(C)c(C)n2Cc1ccc(-c2ccccc2C(=O)O)cc1` [Example 92, 4′-((5-(2-methoxyethylcarbamoyl)-2,3-dimethyl-1H-indol-1-yl)methyl)biphenyl-2-carboxylic acid], the concentration for a half-maximal effect (EC50) in assay [1] is > 1000 nM. The “PPRE transactivation (% in parentheses)” value in assay [1] (rosiglitazone = 100%) is listed as “(9%)”. In addition, in assay [2], the 50% inhibitory concentration (IC50) is 17 nM.

As to `Cc1c(C)n(Cc2ccc(-c3ccccc3C(=O)O)cc2)c2ccc(C(=O)NCc3ccc(N)cc3)cc12` [Example 95, 4′-((5-(4-aminobenzylcarbamoyl)-2,3-dimethyl-1H-indol-1-yl)methyl)biphenyl-2-carboxylic acid], the “PPRE transactivation (% in parentheses)” value in assay [1] (rosiglitazone = 100%) was “(0%)”. Besides, the concentration for half-maximal inhibition (IC50) in assay [2] was found to be 4 nM.

Consider `Cc1c(C)n(Cc2ccc(-c3ccccc3C(=O)O)cc2)c2ccc(C(=O)NCc3ccc(OC(F)(F)F)cc3)cc12` [compound 15, 4′-((2,3-Dimethyl-5-(4-(trifluoromethoxy)benzylcarbamoyl)-1H-indol-1-yl)methyl)biphenyl-2-carboxylic acid], for which, in assay [1], the EC50 worked out at 83 nM. In addition, the “PPRE transactivation (% in parentheses)” value in assay [1] (rosiglitazone = 100%) was “(20%)”.

These data come from patent US8957093B2, “N-biphenylmethylindole modulators of PPARG” (The Scripps Research Institute, priority 2011, dated 2015).
